“Also recorded” adds a separate entry of the source. Like-named read-outs stand apart in the source and are kept apart here.
Columns and labels:
mGluR5 = test: Luciferase reporter assay, mGluR5; conditions: transfected control cells; for antagonist effect on mGluR5 activity (in words): SIB 1757 10 μM + CHPG 1 mM
Protocol: Ultimately, a chemiluminescent signal is produced by the promoter-driven reporter expression that is directly proportional to activation or inhibition of a specific GPCR in the cells ([Unal, 2019]).
Briefly, the HEK293 cell line was transfected with three types of plasmids using polyethylenimine (PEI, 408727, Sigma-Aldrich, United States) 24 h prior to agonist application. Plasmid 1 encodes the GRM5–tTA fusion protein. The linker between mGluR5 and tTA is sensitive to TEV protease.^1 In case of testing the activity of LCGM-10 peptide toward mGluR1 and mGluR4, we applied the plasmids encoding GRM1-tTA^2 and GRM4-tTA^3 fusion proteins, respectively. Plasmid 2 encodes β-arrestin2–TEV protease fusion protein.^4 Plasmid 3 encodes the luciferase tTA reporter.^5 Transfected cells were treated with agonist/antagonist and incubated overnight (16 h). Antagonists were introduced 10 min prior to agonists. […] The luciferase test was performed using Promega™ Luciferase Assay Systems Kit (PR-E1500, Promega, United States) according to the manufacturer’s protocol.
Statistical analyses were performed using GraphPad Prism 9.5 (GraphPad Software, United States). The in vitro luciferase reporter assay was performed in three biological replicates and analyzed with two-way analysis of variance with the post hoc Bonferroni multiple comparison test. […] Differences between groups were considered significant at p < 0.05.

mGluR4 [1] = conditions: ref Mathiesen et al., 2003; Dalton et al., 2017; cited from earlier work
zebrafish [2] = conditions: ref Malyshev et al., 2021; cited from earlier work
From the text: We carried out the two most common tests to evaluate the fish response to the stressful conditions of novelty (NTT) and bright light (LDB). Figure 1 represents the summary data of the effects of the LCGM peptides on the NTT and LDB results relative to each group control, expressed as z-scores. The Supporting Information contains the examples of motor tracks (Supplementary Figures S1, S2), and primary data (Supplementary Figures S3, S4), and Table 2 provides the results of the two-way ANOVA.

zebrafish [3] = tested on: zebrafish; parameters: method as in Maximino et al., 2014; conditions: similar to LCGM-10 and LCGM-15, ref Maximino et al., 2014, cited from earlier work
mice = tested on: mice; parameters: method as in Kobayashi et al., 2020; conditions: caffeine 25 mg/kg, ref Kobayashi et al., 2020; cited from earlier work
Wistar rats = test: Home cage spontaneous locomotor activity (SLA); format: in vivo, rat (Wistar)
Protocol: Wildtype D. rerio (128 fish, shortfin phenotype, 6–8 months of age, male to female ratio 50: 50) were kept in a ZebTEC recirculating system (Tecniplast S.p.a, Buguggiate, Italy), and housed under a 14/10-h photoperiod (lights on at 08: 00 and off at 22: 00). The system parameters were maintained automatically with water set at 28°C, pH 6.8–7.5, […], and constant aeration. Feeding was carried out twice a day with special food for fish (Special Diet Services, Scientific Fish Food, SDS 300–400). In total, 30 male Sprague Dawley rats were used in the behavioral screening study, and 53 male Wistar rats in the locomotion study (N = 23) and the delay discounting test (N = 30). The animals were housed under constant environmental conditions (12-h photoperiod at 22 ± 2°C) with ad libitum access to food and water. All animal experiments were conducted in accordance with the European Directive 2010/63/EU of the European Parliament (Council of 22 September 2010 on the protection of animals used for scientific purposes) and were approved by the local Bioethics Commissions. All manipulations with animals were carried out at the end of the 14-day adaptation period.
We administered LCGM peptides intranasally. Peptides were dissolved in saline at a concentration appropriate for the dosage. For administration, the rat was held in a horizontal position, with its head slightly tilted back. Then, using an automatic laboratory pipette, no more than 10 μL of the peptide solution was carefully introduced into each nostril of the rat. After visually confirming that the entire volume of liquid entered the animal’s nose, the rats were returned to their home cage. […] This route of administration has several advantages for short peptides, such as rapid systemic drug absorption and the potential to bypass the blood–brain barrier more effectively and access the central nervous system ([Pires et al., 2009]; [Lochhead and Thorne, 2012]). For patients, this method is relatively noninvasive and limits the side effects associated with peripheral administration of substances ([Meredith et al., 2015]).
Spontaneous locomotor activity (SLA) was measured using the Activiscop setup (NewBehavior Inc., Switzerland) ([Madani et al., 2003]). The animals were kept in home cages with free access to food and water. Motor activity was recorded using an infrared sensor located above each cage. The experiment lasted 2 days: On the first day, baseline activity was recorded, and then Wistar rats received LCGM-10 (5 mg/kg in saline, intranasal) and caffeine (30 mg/kg in saline, intraperitoneal) and were recorded for another 24 h. The days were divided into day 1 (12: 00–18: 59), night (19: 00–06: 59), and day 2 (07: 00–11: 59). The results are presented as the number of behavioral acts per minute (arbitrary units [a.u.]) for each animal. The experiment was performed by the Serbsky National Medical Research Center for Psychiatry and Narcology on a contract basis.

human mGluR5 = test: Calcium flux imaging, CHO-mGluR5 cells; format: cell-based
From the text: mGluR5 activation leads to Ca^2+ influx that could be blocked by adding a specific antagonists or NAMs ([Kettunen et al., 2002]; [Beggiato et al., 2018]). Elevation of intracellular Ca^2+ levels via the phospholipase C pathway is typical for all Gq-coupled GPCRs ([Liu et al., 2008]) and can be detected using a penetrating Ca^2+ indicator.
The CHO cell line stably expressing human mGluR5 was generated using T-Rex System (Thermo Fisher Scientific Inc., United States) according to the manufacturer’s instructions. Briefly, complementary DNA (cDNA) encoding human mGluR5 was subcloned into the pcDNA4/TO inducible expression vector, which was transfected into CHO cells carrying the pcDNA6/TR regulatory vector that expresses the tetracycline repressor. After 2 weeks of selection using 5 μg/mL blasticidin (Thermo Fisher Scientific Inc.) and 250 μg/mL zeocin (Thermo Fisher Scientific Inc.), pools of cells were screened for the expression of mGluR5 in the agonist-induced Ca^2+ uptake assay. Positive cells were expanded and used. mGluR5 expression was induced by adding up to 1 μg/mL of tetracycline (Thermo Fisher Scientific Inc.) 16 h before testing.
Fluorescent assays were performed using NOVOstar (BMG LABTECH, Germany). CHO-mGluR5 cells were seeded into black-walled, clear-bottomed 96-well plates at a density of 75,000 cells per well (complete media without antibiotics and containing 1 μg/mL of tetracycline to induce receptor expression) and were cultured overnight at 37°C. The cells were then loaded with the cytoplasmic calcium indicator Fluo-4 AM using the Fluo-4 Direct™ Calcium Assay Kits (Thermo Fisher Scientific Inc.) and incubated in the dark at 37°C for 60 min, and then at 25°C for 60 min. The buffer alone (control) or the buffer containing different concentrations of LCGM-10 (0.02, 2, 20, and 200 μM), LCGM-15 (0.02, 2, 20, and 200 μM), or 2-methyl-6-(phenylethynyl) pyridine ([MPEP] 0.1, 1, 10, and 100 μM; Sigma-Aldrich, United States) were added to the cells (in six replicate wells). […] The measurements were performed at pH 7.4 and 37°C.

ADHD patients = conditions: cited from earlier work; for effect size of non-stimulants: medium range, smaller than stimulants, ref Cortese et al., 2018
From the text: To sum up, the development of new medications for disorders with an excessive impulsivity as a major component is of high interest for both academy and industry. Addictions, including substance use disorder and gambling, faces the unmet need for novel medicines ([Rash et al., 2016]). In case of ADHD there is also a need for new medications with novel mechanisms of action since currently approved drugs show a non-response or lack efficacy in a significant number of patients ([Mechler et al., 2022]). Routinely used stimulant methylphenidate is efficient in up to 70% of cases ([Bodey, 2011]), and ...

rodents = conditions: ref Guimaraes et al., 2015, cited from earlier work
From the text: Therefore, we evaluated the potential of LCGM-10 as a therapeutic in male rats submitted to the OF and EPM. […] The importance of mGluR5 for modulating motor behavior has been reported in pharmacological ([Mcgeehan et al., 2004]; [Guimaraes et al., 2015]) as well as knockout ([Gray et al., 2009]; [Jew et al., 2013]; [Ribeiro et al., 2014]) studies in rodents, with so ...

mGluR4 [4] = test: Luciferase reporter assay, mGluR4; format: cell-based; conditions: L-AP4 1 µM; (−)-PHCCC 40 µM; HEK293, N = 3
Protocol: (§1) Figure S5. The mGluR1- and mGliR4-luciferase reporter assay results. HEK293 cells transfected with genetic reporter systems were treated with DHPG (10 µM) or DHPG (10 µM) + (−)-PHCCC (40 µM) in the case of mGluR1 and with L-AP4 (1 µM) or L-AP4 (1 µM) + (−)-PHCCC (40 µM) in the case of mGluR4. LCGM-10 was administered at a dose of 20 and 200 µM. […] The data are presented as the mean ± standard deviation for three biological replicates (N=3 in each group). * P < 0.01 versus the transfected control + control agonist.

mGluR1 = test: Luciferase reporter assay, mGluR1; format: cell-based; conditions: DHPG 10 µM; (−)-PHCCC 40 µM; HEK293, N = 3
Protocol: as §1

animal models = conditions: ref Wooters and Bardo, 2011; cited from earlier work
From the text: (§2) Delay discounting tasks are also used to assess impulsive behavior in human studies, giving an insight into causal mechanism of addictions such as substance abuse and gambling ([Reynolds, 2006]; [de Wit, 2009]; [Hodgins and Holub, 2015]), and ADHD ([Barkley et al., 2001]; [Scheres et al., 2008]; [Shiels et al., 2009]). Impulsivity in the human and rodent delay discounting task derives form the similar neural substrates: lower D2/3 receptor availability in ventral striatum of rats and pathological gamblers, individuals with methamphetamine dependence, and alcohol use disorder ([Voon and Dalley, ...

human = conditions: ref Shiels et al., 2009; cited from earlier work
From the text: as §2

Compound: Cc1ccc(O)c(N=Nc2ccccc2)n1 [SIB 1757]
- antagonist effect on mGluR5 activity (in words) (mGluR5): inhibited mGluR5 activity
- antagonist effect on mGluR5 activity (in words) (mGluR5; listed as SIB1757): depleted
- PAM activity at mGluR4 (in words) (mGluR4 [1]): The effect is not observed

Compound: CN1C(=O)CN=C(c2ccccc2)c2cc(Cl)ccc21 [diazepam]
- anxiolytic-like activity (in words) (zebrafish [2]): anxiolytic-like activity

Compound: Cn1c(=O)c2c(ncn2C)n(C)c1=O [caffeine]
- effect on locomotion (in words) (zebrafish [3]; caffeine 10 mg/kg): motor-stimulating effects
- duration of SLA increase (mice): up to 3 h
- SLA at night (in words) (Wistar rats; LCGM-10 5 mg/kg intranasal or caffeine 30 mg/kg intraperitoneal, night (19:00–06:59), F2, 20 = 0.6, p = 0.56): no effects of treatment on the nighttime activity
- duration of SLA increase after administration (Wistar rats; LCGM-10 5 mg/kg intranasal, caffeine 30 mg/kg intraperitoneal, 30-min intervals): up to 90 min
- SLA on day 1 (in words) (Wistar rats; caffeine 30 mg/kg intraperitoneal, day 1 (12:00–18:59), N = 7–8): enhanced SLA; also recorded: significant induction of SLA
- SLA on day 2 (in words) (Wistar rats; caffeine 30 mg/kg intraperitoneal, day 2 (07:00–11:59), N = 7–8): hypokinesia; also recorded: significant reduction in SLA
- hypokinetic rebound (in words) (Wistar rats; single administration, LCGM-10 compared with caffeine): followed by a locomotor depression

Compound: Cc1cccc(/C=C/c2ccccc2)n1 [SIB-1893]
- PAM activity at mGluR4 (in words) (mGluR4 [1]): able to act as PAMs of mGluR4

Compound: N[C@@H](CCC(=O)O)C(=O)[O-].[Na+] [GluNa]
- agonist effect on Ca2+ (in words) (human mGluR5; GluNa 1 mM vs non-activated cells, peak fluorescence, N = 7 (activated), N = 5 (basal)): enhanced fluorescence peak intensity; also recorded: enhanced Ca^2+ influx

Compound: CNCC[C@@H](Oc1ccccc1C)c1ccccc1 [atomoxetine]
- effect size of non-stimulants (ADHD patients): ≤ 60%

Compound: Cc1cccc(C#Cc2ccccc2)n1 [MPEP, 2-methyl-6-(phenylethynyl) pyridine]
- effect on locomotion (in words) (rodents; applied to olfactory bulbs, dorsolateral striatum, dorsal hippocampus): stimulatory effect on locomotion
- brain regions without locomotor stimulation (in words) (rodents; local application): not primary motor area and ventral striatum
- effect on GluNa-evoked Ca2+ influx (in words) (human mGluR5; vs 1 mM GluNa, Fluo-4 AM, 3 min preincubation 37°C, pH 7.4, peak fluorescence, N = 6): effectively blocked GluNa-evoked calcium oscillations in cells at all tested doses
- concentrations with significant reduction of intracellular Ca2+ levels (human mGluR5; vs activated control (1 mM GluNa), peak fluorescence, q < 0.05, N = 6 each): 0.1 to 100 µM
- PAM activity at mGluR4 (in words) (mGluR4 [1]): able to act as PAMs of mGluR4

Compound: N[C@@H](CCP(=O)(O)O)C(=O)O [L-AP4]
- reference ligand effect on mGluR4 (in words) (mGluR4 [4]): induced luciferase signals

Compound: Cc1nc(C#Cc2cccnc2)cs1 [MTEP]
- PAM activity at mGluR4 (in words) (mGluR4 [1]): The effect is not observed

Compound: Clc1cccc(Cl)c1N=C1NCCN1 [clonidine]
- effect size of non-stimulants (ADHD patients): ≤ 60%

Compound: N[C@H](C(=O)O)c1cc(O)cc(O)c1 [DHPG]
- reference ligand effect on mGluR1 (in words) (mGluR1): induced luciferase signals

Compound: COC(=O)C(c1ccccc1)C1CCCCN1 (stereo not shown) [methylphenidate]
- efficient in percent of cases (ADHD patients; ref Bodey, 2011): up to 70%
- discounting of delayed rewards (in words) (animal models): reduced discounting of delayed rewards
- discounting of delayed rewards (in words) (human): reduced discounting of delayed rewards

Compound: O=C(Nc1ccccc1)C12CC1/C(=N\O)c1ccccc1O2 (single isomer, unassigned; (-)) [(−)-PHCCC]
- reference ligand effect on mGluR1 (in words) (mGluR1): inhibited DHPG-induced mGluR1 activity
- reference ligand effect on mGluR4 (in words) (mGluR4 [4]): enhanced L-AP4-induced mGluR4 activity

Compound: CC(NC(C)(C)C)C(=O)c1cccc(Cl)c1 (stereo not shown) [bupropion]
- effect on locomotion (in words) (zebrafish [3]; bupropion 30 mg/kg): motor-stimulating effects

Compound: N=C(N)NC(=O)Cc1c(Cl)cccc1Cl [guanfacine]
- effect size of non-stimulants (ADHD patients): ≤ 60%

Compound: NC(C(=O)O)c1cc(O)ccc1Cl (racemic) [CHPG]
- agonist effect on luciferase signal (in words) (mGluR5; CHPG 1 mM): enhanced; also recorded: induced a luciferase signal

From article PMC10879279 (Frontiers in Behavioral Neuroscience, 2024)
